Measurements from paper PMC11795524, “Melanin-Binding-Based Discovery of Topically Instilled Carbonic Anhydrase Inhibitors for Targeted Delivery and Prolonged Action in the Eye” (Molecular Pharmaceutics, 2025).
Read-outs that look alike come from different tables or passages of the source.

Legend:
[1] = In vitro melanin binding by microscale thermophoresis / initial fluorescence (Monolith NT.115 pico); conditions: Appendix table 1, Nano or Pico detector, IF or MST mode, 68% confidence; for Kd: read-out: Melanin binding affinity Kd ± confidence
Text: Melanin binding of the CAI-II compounds was studied with a Monolith NT.115 pico (NanoTemper Technologies GmbH, Munich, Germany) device using the method of […] et al. […] Otherwise, normalized fluorescence signals and the ratio of relative fluorescence after heating (MST mode) were used. The MST software was used in expert mode to allow heating for 30 s. […] As ligand autofluorescence may interfere with the assay, their autofluorescence values were pretested with the detector used in experiment (nanoblue or pico-red). Fluorescence of the ligand should be below 20% of melanin fluorescence. Sample aggregation and adsorption to the capillaries were used also as exclusion criteria.

[2] = biological target: recombinant human carbonic anhydrase II; parameters: method as in earlier work; conditions: stopped flow kinetics protocol; read-out: Ki against hCA II; cited from earlier work
[3] = biological target: T1, human carbonic anhydrase II (Homo sapiens, UniProt P00918); assay: Multiparametric surface plasmon resonance (MP-SPR) interaction kinetics with immobilized hCAII; format: binding
T1 construct: purchased Sigma
Experimental: All MP-SPR measurements were conducted at 25 °C using carboxymethyl dextran hydrogel-coated (CMD-3DM) sensors (BioNavis) and were based on the protocol described by Rogez-Florent et al.[22]
Human carbonic anhydrase isoenzyme II (Sigma) was immobilized using a standard amine coupling procedure with the Amine Coupling Kit (BioNavis) and phosphate buffered saline (PBS) (20 mM phosphate buffer, 150 mM NaCl, pH 7.4) as the background buffer. Before immobilization, the sensor surface was cleaned with 2 M sodium chloride and 10 mM sodium hydroxide for 6 min at a flow rate of 30 μL/min. Then, a constant flow rate of 10 μL/min was maintained throughout the immobilization steps. The surface was activated for 7 min with 200 mM 1-ethyl-3-(3-(dimethylamino)propyl)-carbodiimide (EDC) and 50 mM N-hydroxysuccinimide, immediately followed by a 5 min injection of 45 μg/mL hCAII solution in 10 mM acetate buffer, pH 5.5. In the reference flow channel, no enzyme was immobilized. Residual activated groups of the dextran matrix were deactivated by a 7 min injection of 1 M ethanolamine HCl, pH 8.3.
For analyzing CAIs, 1% (v/v) DMSO in PBS, pH 7.4, was used as a running buffer. All CAIs were dissolved in 100% DMSO and stored as 50 mM stock solutions. These stock solutions were further diluted with the running buffer and analyzed using a 3-fold (3–1000 nM) dilution series. […] Each analyte was injected at a flow rate of 100 μL/min, with an association time of 2 min and a dissociation time of 10 min. […] Seven concentrations were measured for each CAI per cycle, and a “wash all” step with running buffer was performed at the end of each cycle to minimize the carry over effects. Each CAI were assayed in triplicate across three independent experiments.
The acquired data were processed using MP-SPR Navi Data Viewer software (version 6.7.0.1, BioNavis) employing the weighted centroid method for determining the SPR peak angular position. Signals from the reference flow channel were subtracted from the corresponding signals of the flow channel containing immobilized hCAII. The moment of sample injection was selected as the zero-time point, where both the time and MP-SPR response were set to zero. Processed data were globally fitted to a simple 1:1 interaction model using TraceDrawer software (version 1.9.2, Ridgeview Instruments AB, Sweden) to obtain kinetic parameters.

[4] = MP-SPR, 25 °C, 1:1 model, read-out: KD

| Kd [1] [µM] | Compound | Ki [2] [nM] | further results |
| --- | --- | --- | --- |
| 92 ± 25 | NS(=O)(=O)Nc1ccc(F)cc1F [C01] | 76.3 ± 7.6 | – |
| 122 ± 40 | NS(=O)(=O)NCc1cccc2ccccc12 [C02] | 5250 ± 525 | – |
| 361 ± 700 | NS(=O)(=O)NCc1ccc(F)cc1 [C03] | 70.5 ± 7.1 | – |
| 405 ± 311 | NS(=O)(=O)N1CCC(O)CC1 [C04] | 42.7 ± 4.3 | – |
| 412 ± 802 | NS(=O)(=O)NCC1CCCO1 (stereo not drawn) [C05] | 63.4 ± 6.3 | – |
| 582 ± 465 | NS(=O)(=O)Nc1ccc(C(F)(F)F)cc1 [C06] | 37.8 ± 3.8 | – |
| 596 ± 264 | NS(=O)(=O)NCCc1ccc(S(=O)(=O)N2CCCC2)cc1 [C07] | 43.5 ± 4.4 | – |
| 1050 ± 2070 | NS(=O)(=O)Nc1cccc2ccccc12 [C08] | 56.7 ± 5.7 | – |
| 1120 ± 2350 | NS(=O)(=O)N1CCc2ccccc2C1 [C09] | 32.8 ± 3.3 | – |
| 1520 ± 4030 | CCN(CC)CCN(C)S(N)(=O)=O [C10] | 92.3 ± 9.2 | – |
| 1620 ± 4530 | CN(C)CCN(Cc1ccccc1)S(N)(=O)=O [C11] | 39.8 ± 4 | – |
| 1680 ± 3480 | CN1CCC(NS(N)(=O)=O)CC1 [C12] | 52.1 ± 5.2 | – |
| 1700 | CC1Cc2ccccc2N1S(N)(=O)=O (stereo not drawn) [C13] | 316 ± 31.6 | – |
| 25000 | NS(=O)(=O)NC1CCCc2ccccc21 (stereo not drawn) [C16] | 42.6 ± 4.3 | – |

Further lines, the molecule ahead of its results:

| Compound | Kd [1] [µM] | Ki [2] [nM] | further results |
| --- | --- | --- | --- |
| NS(=O)(=O)c1cccc(-c2nc(-c3cccnc3)no2)c1 [A02] | 78 ± 24 | 0.77 ± 0.08 | – |
| NS(=O)(=O)c1ccc(-n2nc(-c3ccccc3)ccc2=O)cc1 [A03] | 78 ± 39 | 0.26 ± 0.03 | – |
| COc1ccc(-c2noc(-c3ccc(S(N)(=O)=O)cc3)n2)cc1OC [A04] | 92 ± 17 | 0.46 ± 0.05 | – |
| CC(=NNc1ccc(S(N)(=O)=O)cc1)c1nccnc1C [A05] | 97 ± 44 | – | ka ([3]; MP-SPR, 25 °C, 1:1 model): 0.61 ± 0.25 10^6 M^–1 s^–1; kd ([3]; MP-SPR, 25 °C, 1:1 model): 1.70 ± 0.25 10^–2 s^–1; Kd [3, 4]: 0.0315 ± 0.00919 µM |
| NS(=O)(=O)c1ccc(-n2ncc3ccccc3c2=O)cc1 [A06] | 104 ± 42 | 0.23 ± 0.02 | – |
| NS(=O)(=O)c1ccc(NN=C(c2cncc(F)c2)C2CC2)cc1 [A07] | 115 ± 85 | – | ka ([3]; MP-SPR, 25 °C, 1:1 model): 0.24 ± 0.05 10^6 M^–1 s^–1; kd ([3]; MP-SPR, 25 °C, 1:1 model): 1.78 ± 0.40 10^–2 s^–1; Kd [3, 4]: 0.0756 ± 0.0112 µM; Kd ([3]; surface plasmon resonance, Appendix table 1, read-out: Kd against hCA II): 0.0756 ± 0.0112 µM |
| COc1ccc2cnn(-c3ccc(S(N)(=O)=O)cc3)c(=O)c2c1OC [A08] | 142 ± 55 | 3.5 ± 0.4 | – |
| COc1cc(S(N)(=O)=O)ccc1-c1nc(-c2cccnc2)no1 [A09] | 152 ± 98 | 0.74 ± 0.08 | – |
| COc1ccc(-c2ccc(=O)n(-c3ccc(S(N)(=O)=O)cc3)n2)cc1 [A10] | 156 ± 101 | 0.08 ± 0.001 | – |
| Cc1ccccc1-c1noc(-c2ccc(S(N)(=O)=O)cc2)n1 [A11] | 177 ± 56 | 0.42 ± 0.04 | – |
| NS(=O)(=O)c1ccc(-n2cccn2)cc1 [A13] | 203 ± 367 | 0.072 ± 0.001 | – |
| Cc1nn(-c2ccc(S(N)(=O)=O)cc2)c(=O)c2ccccc12 [A14] | 205 ± 98 | 0.03 ± 0.01 | – |
| CC(=NNc1ccc(S(N)(=O)=O)cc1Br)c1cccnc1 [A15] | 230 ± 85 | – | ka ([3]; MP-SPR, 25 °C, 1:1 model): 0.43 ± 0.25 10^6 M^–1 s^–1; kd ([3]; MP-SPR, 25 °C, 1:1 model): 1.25 ± 0.43 10^–2 s^–1; Kd [3, 4]: 0.046 ± 0.0298 µM |
| NS(=O)(=O)c1ccc(-c2nc(-c3ccc(Oc4ccc(F)cc4)cc3)no2)cc1 [A16] | 451 ± 581 | 48.3 ± 4.8 | – |
| CC(=NNc1ccc(S(N)(=O)=O)cc1)c1cnc2ccccc2n1 [A17] | 483 ± 137 | – | ka ([3]; MP-SPR, 25 °C, 1:1 model): 0.13 ± 0.05 10^6 M^–1 s^–1; kd ([3]; MP-SPR, 25 °C, 1:1 model): 1.27 ± 0.11 10^–2 s^–1; Kd [3, 4]: 0.113 ± 0.0507 µM |
| NS(=O)(=O)c1ccc(-c2noc(-c3ccsc3)n2)cc1 [A18] | 520 ± 79 | 44.3 ± 4.4 | – |
| CC(=NNc1ccc(S(N)(=O)=O)cc1)c1cncc(Br)c1 [A19] | 561 ± 299 | – | ka ([3]; MP-SPR, 25 °C, 1:1 model): 0.15 ± 0.04 10^6 M^–1 s^–1; kd ([3]; MP-SPR, 25 °C, 1:1 model): 2.25 ± 0.02 10^–2 s^–1; Kd [3, 4]: 0.161 ± 0.041 µM |
| NS(=O)(=O)c1ccc(-n2ncccc2=O)cc1 [A20] | – | 8.2 ± 0.8 | – |
| NS(=O)(=O)c1ccc2c(c1)Oc1ccccc1C(=O)N2C1CC1 [A21] | 722 ± 1030 | 0.82 ± 0.08 | – |
| Cc1cc(-n2cccn2)ccc1S(N)(=O)=O [A23] | 957 ± 2010 | 0.008 ± 0.001 | – |
| COc1cc(S(N)(=O)=O)ccc1-c1nc(-c2ccc3c(c2)OC(=O)CN3C)no1 [A24] | 1550 ± 4580 | 48.3 ± 4.8 | – |
| NS(=O)(=O)c1ccc(-n2nc(-c3ccc(Cl)c(Cl)c3)ccc2=O)cc1 [A25] | – | 74.1 ± 7.4 | – |
| CC(C)(C)c1ccc(-c2noc(-c3ccc(S(N)(=O)=O)cc3)n2)cc1 [A26] | – | 0.95 ± 0.09 | – |

| Compound | Kd [1] [µM] | Ki [2] [nM] | further results |
| --- | --- | --- | --- |
| NS(=O)(=O)c1ccc(Cl)c(-n2cccn2)c1 [A27] | – | 0.001 ± 0.001 | – |
| Cc1cc(C)n(-c2ccc(S(N)(=O)=O)cc2)n1 [A28] | – | 0.004 ± 0.001 | – |
| NS(=O)(=O)c1ccc(-n2ncc(N3CCc4ccccc4C3)c(Cl)c2=O)cc1 [A29] | – | 60.5 ± 6 | – |
| Cc1ccc(=O)n(-c2ccc(S(N)(=O)=O)cc2)n1 [A30] | – | 0.68 ± 0.07 | Melanin binding affinity Kd ± confidence [1]: Not detectable |
| CCn1nc(-c2cc(S(N)(=O)=O)c(C)s2)ccc1=O [B01] | 105 ± 30 | 4.8 ± 0.5 | – |
| NS(=O)(=O)c1ccc(-c2ncc(C(=O)N3CCNCC3)o2)s1 [B02] | 165 ± 19 | 0.069 ± 0.007 | – |
| CC(=O)Nc1nc(-c2csc(S(N)(=O)=O)c2)no1 [B03] | 231 ± 43 | – | – |
| NS(=O)(=O)c1ccc(-c2ccc(=O)[nH]n2)s1 [B04] | 393 ± 185 | 3.6 ± 0.4 | – |
| NS(=O)(=O)c1cc(-c2noc(C3CC3)n2)cs1 [B05] | 448 ± 166 | 0.88 ± 0.08 | – |
| Cc1ccc(-c2noc(N)c2S(N)(=O)=O)cc1S(N)(=O)=O [B06] | 573 ± 154 | 6 ± 0.6 | – |
| NS(=O)(=O)c1cnn(-c2ccc(Cl)c(S(N)(=O)=O)c2)c1 [B07] | 941 ± 1740 | 0.008 ± 0.001 | – |
| Cc1nn(-c2ccc(Cl)c(S(N)(=O)=O)c2)c(C)c1S(N)(=O)=O [B08] | – | 0.008 ± 0.001 | – |
| Nc1onc(-c2csc(S(N)(=O)=O)c2)c1S(N)(=O)=O [B09] | 2130 | 24.6 ± 2.5 | – |
| Cc1nn(-c2cc(S(N)(=O)=O)ccc2Cl)c(C)c1S(N)(=O)=O [B10] | – | 0.008 ± 0.01 | – |
| Cc1ccccc1-n1nc(C)c(S(N)(=O)=O)c1C [B11] | – | 0.091 ± 0.01 | Melanin binding affinity Kd ± confidence [1]: Not detectable |
| NS(=O)(=O)N1CCC(N2CCCCC2)CC1 [C14] | – | 99.3 ± 9.9 | – |
| NS(=O)(=O)N1CCCc2ccccc21 [C15] | – | 89.5 ± 9 | – |
| CC(C)(C)OC(=O)N1CCN(S(N)(=O)=O)CC1 [C17] | – | 16.2 ± 1.6 | Melanin binding affinity Kd ± confidence [1]: Not detectable |
| COC(=O)C1CCCN1S(N)(=O)=O (stereo not drawn) [C18] | – | 69.8 ± 7 | Melanin binding affinity Kd ± confidence [1]: Not detectable |
| NS(=O)(=O)N1CCc2ccccc21 [C19] | – | 472 ± 47.2 | Melanin binding affinity Kd ± confidence [1]: Not detectable |
| CCOC(=O)C1CCN(S(N)(=O)=O)CC1 [C20] | – | 42.8 ± 4.3 | Melanin binding affinity Kd ± confidence [1]: Not detectable |
| NS(=O)(=O)N1CCOCC1 [C21] | – | 66.9 ± 7 | Melanin binding affinity Kd ± confidence [1]: Not detectable |
| NC(=O)C1CCN(S(N)(=O)=O)CC1 [C22] | – | 59.4 ± 6 | Melanin binding affinity Kd ± confidence [1]: Not detectable |
